Reference: the supplement of paper PMC10307832

What was measured:
Experiment in all cases: relative viability (nuclei count vs DMSO), 5 days (fraction); higher = more cells survive
[1] = compound: COC1=CC=C(C=C1)CN2C=CC3=C2C=C(C=C3)C(=O)NO + CC(=O)Nc1cccc(-n2c(=O)n(C3CC3)c(=O)c3c(Nc4ccc(I)cc4F)n(C)c(=O)c(C)c32)c1 [Trametinib] (partner 0.02 µM)
How it was run: (§1)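 Cells from lung cancer lines were seeded into 1536-well plates and, one day later, dosed by pin tool. Treatments were either a single drug or a fixed dose of an anchor drug with five library-drug doses (not always all listed) in √10 steps. After 5 days, nuclei were stained in a one-step fixation (final 0.05% Triton X-100, 1% formaldehyde, 1 ug/ml Hoechst) and counted on 4× images, and relative viability is the treated-to-vehicle nuclei ratio, as the median of duplicate plates.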

[2] = compound: COC1=CC=C(C=C1)CN2C=CC3=C2C=C(C=C3)C(=O)NO + C[C@@H](Oc1cc(-c2cnn(C3CCNCC3)c2)cnc1N)c1c(Cl)ccc(F)c1Cl [Crizotinib] (partner 1 µM)
How it was run: as §1

[3] = compound: C[C@]1(c2nc3c(C(N)=O)cccc3[nH]2)CCCN1 [Veliparib] + CC(C)C[C@H](NC(=O)[C@H](Cc1ccccc1)NC(=O)c1cnccn1)B(O)O [Bortezomib] (partner 0.002 µM)
How it was run: as §1

[4] = compound: C[C@]1(c2nc3c(C(N)=O)cccc3[nH]2)CCCN1 [Veliparib] + Nc1nc2[nH]cc(CCc3ccc(C(=O)N[C@@H](CCC(=O)O)C(=O)O)cc3)c2c(=O)[nH]1 [Pemetrexed] (partner 0.2 µM)
How it was run: as §1

SW 1573
relative viability ([1]; first compound 0.253 µM): 0.539
relative viability ([1]; first compound 0.8 µM): 0.678
relative viability ([1]; first compound 2.53 µM): 0.562
relative viability ([1]; first compound 8 µM): 0.37
relative viability ([2]; first compound 0.253 µM): 0.908
relative viability ([2]; first compound 0.8 µM): 0.803
relative viability ([2]; first compound 2.53 µM): 0.755
relative viability ([2]; first compound 8 µM): 0.587
relative viability ([3]; first compound 0.02 µM): 0.951
relative viability ([3]; first compound 0.06325 µM): 0.982
relative viability ([3]; first compound 0.2 µM): 1.07
relative viability ([3]; first compound 0.6325 µM): 0.862
relative viability ([3]; first compound 2 µM): 1.06
relative viability ([4]; first compound 0.06325 µM): 0.721
relative viability ([4]; first compound 0.2 µM): 0.758
relative viability ([4]; first compound 0.6325 µM): 0.768
relative viability ([4]; first compound 2 µM): 0.86
